According to the supplement of paper PMC10307832:

What follows are cell lines tested with O=C(/C=C/c1ccccc1)NC(NC(=S)Nc1cccc2cccnc12)C(Cl)(Cl)Cl [Salubrinal] + COc1cc2c(Oc3ccc(NC(=O)C4(C(=O)Nc5ccc(F)cc5)CC4)cc3F)ccnc2cc1OCCCN1CCOCC1 [Foretinib] (partner 0.25 µM) (assay: relative viability (nuclei count vs DMSO), 5 days (fraction); higher = more cells survive). Conditions: first compound 0.08 µM.
Procedure, shortened: (§1)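 Lung cancer cell lines were pin-tool dosed in 1536-well plates on the day after seeding, with either a lone drug or a fixed anchor-drug dose plus five library-drug doses (not always all listed) in √10 steps. Nuclei were counted on 4× images after 5 days. Relative viability is the ratio of treated-well to vehicle-well nuclei counts, with each value a median of duplicate plates.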

Cell Line	relative viability
HCC-15	1.21
PC-14	1.02
EKVX	0.755
LC-2-ad	0.887
NCI-H1975	1.05
RERF-LC-KJ	0.959
NCI-H1944	0.871
PC-3 [JPC-3]	0.99

Same assay, conditions: first compound 0.253 µM

Cell Line	relative viability
HCC-15	0.999
PC-14	0.873
EKVX	0.776
LC-2-ad	0.939
NCI-H1975	0.86
RERF-LC-KJ	0.699
NCI-H1944	0.987
PC-3 [JPC-3]	0.918

Same assay, conditions: first compound 0.8 µM

Cell Line	relative viability
HCC-15	1.07
PC-14	1.1
EKVX	0.82
LC-2-ad	0.919
NCI-H1975	1
RERF-LC-KJ	0.941
NCI-H1944	0.885
PC-3 [JPC-3]	1.07

Same assay, conditions: first compound 2.53 µM

Cell Line	relative viability
HCC-15	1.08
PC-14	1
EKVX	0.714
LC-2-ad	0.966
NCI-H1975	0.944
RERF-LC-KJ	0.921
NCI-H1944	0.913
PC-3 [JPC-3]	1

Same assay, conditions: first compound 8 µM

Cell Line	relative viability
HCC-15	1.06
PC-14	0.931
EKVX	0.792
LC-2-ad	0.886
NCI-H1975	0.923
RERF-LC-KJ	0.706
NCI-H1944	0.904
PC-3 [JPC-3]	0.998

These cell lines were tested with O=C(/C=C/c1ccccc1)NC(NC(=S)Nc1cccc2cccnc12)C(Cl)(Cl)Cl [Salubrinal] + CC1(C)CCC(c2ccc(Cl)cc2)=C(CN2CCN(c3ccc(C(=O)NS(=O)(=O)c4ccc(N[C@H](CCN5CCOCC5)CSc5ccccc5)c(S(=O)(=O)C(F)(F)F)c4)cc3)CC2)C1 [Navitoclax] (partner 0.5 µM) in the same assay as above. Conditions: first compound 0.08 µM.
Procedure, shortened: as §1

Cell Line	relative viability
HCC-15	0.785
PC-14	1.05
EKVX	0.958
LC-2-ad	0.5
NCI-H1975	1.27
RERF-LC-KJ	0.858
NCI-H1944	1.07
PC-3 [JPC-3]	0.859

Same assay, conditions: first compound 0.253 µM

Cell Line	relative viability
HCC-15	0.602
PC-14	1.01
EKVX	0.983
LC-2-ad	0.35
NCI-H1975	0.796
RERF-LC-KJ	1.24
NCI-H1944	1.08
PC-3 [JPC-3]	0.768

Same assay, conditions: first compound 0.8 µM

Cell Line	relative viability
HCC-15	0.722
PC-14	1
EKVX	0.911
LC-2-ad	0.666
NCI-H1975	1.21
RERF-LC-KJ	0.816
NCI-H1944	1.12
PC-3 [JPC-3]	0.846

Same assay, conditions: first compound 2.53 µM

Cell Line	relative viability
HCC-15	0.771
PC-14	1.07
EKVX	1.08
LC-2-ad	0.54
NCI-H1975	1.15
RERF-LC-KJ	0.945
NCI-H1944	1.04
PC-3 [JPC-3]	0.766

Same assay, conditions: first compound 8 µM

Cell Line	relative viability
HCC-15	0.689
PC-14	0.864
EKVX	1.06
LC-2-ad	0.413
NCI-H1975	1.1
RERF-LC-KJ	0.83
NCI-H1944	1.05
PC-3 [JPC-3]	0.766

Each cell line was assayed with Cc1ccc2nc(NCCN)c3ncc(C)n3c2c1 + CC1(C)CCC(c2ccc(Cl)cc2)=C(CN2CCN(c3ccc(C(=O)NS(=O)(=O)c4ccc(N[C@H](CCN5CCOCC5)CSc5ccccc5)c(S(=O)(=O)C(F)(F)F)c4)cc3)CC2)C1 [Navitoclax] (partner 0.5 µM) in the same assay as above. Conditions: first compound 0.04 µM.
Procedure, shortened: as §1

Cell Line	relative viability
HCC-15	0.702
PC-14	0.985
EKVX	1.1
LC-2-ad	0.404
NCI-H1975	1.06
RERF-LC-KJ	0.881
NCI-H1944	1.11
PC-3 [JPC-3]	0.826

Same assay, conditions: first compound 0.1265 µM

Cell Line	relative viability
HCC-15	0.732
PC-14	1.02
EKVX	0.964
LC-2-ad	0.431
NCI-H1975	1.12
RERF-LC-KJ	0.821
NCI-H1944	1.01
PC-3 [JPC-3]	0.767

Same assay, conditions: first compound 0.4 µM

Cell Line	relative viability
HCC-15	0.684
PC-14	0.993
EKVX	0.924
LC-2-ad	0.491
NCI-H1975	1.08
RERF-LC-KJ	1.02
NCI-H1944	1.04
PC-3 [JPC-3]	0.848

Same assay, conditions: first compound 1.265 µM

Cell Line	relative viability
HCC-15	0.677
PC-14	0.908
EKVX	0.992
LC-2-ad	0.526
NCI-H1975	0.952
RERF-LC-KJ	0.65
NCI-H1944	1.06
PC-3 [JPC-3]	0.786

Same assay, conditions: first compound 4 µM

Cell Line	relative viability
HCC-15	0.675
PC-14	0.856
EKVX	0.883
LC-2-ad	0.508
NCI-H1975	0.863
RERF-LC-KJ	0.726
NCI-H1944	1.03
PC-3 [JPC-3]	0.827

These cell lines were tested with O=C(/C=C/c1ccccc1)NC(NC(=S)Nc1cccc2cccnc12)C(Cl)(Cl)Cl [Salubrinal] + Nc1nc2[nH]cc(CCc3ccc(C(=O)N[C@@H](CCC(=O)O)C(=O)O)cc3)c2c(=O)[nH]1 [Pemetrexed] (partner 0.2 µM) in the same assay as above. Conditions: first compound 0.08 µM.
Procedure, shortened: as §1

Cell Line	relative viability
HCC-15	0.205
PC-14	0.114
EKVX	0.411
LC-2-ad	0.242
NCI-H1975	0.321
RERF-LC-KJ	0.458
NCI-H1944	0.607
PC-3 [JPC-3]	0.879

Same assay, conditions: first compound 0.253 µM

Cell Line	relative viability
HCC-15	0.266
PC-14	0.154
EKVX	0.361
LC-2-ad	0.276
NCI-H1975	0.283
RERF-LC-KJ	0.496
NCI-H1944	0.669
PC-3 [JPC-3]	0.919

Same assay, conditions: first compound 0.8 µM

Cell Line	relative viability
HCC-15	0.234
PC-14	0.147
EKVX	0.444
LC-2-ad	0.268
NCI-H1975	0.337
RERF-LC-KJ	0.501
NCI-H1944	0.797
PC-3 [JPC-3]	1.49

Same assay, conditions: first compound 2.53 µM

Cell Line	relative viability
HCC-15	0.231
PC-14	0.124
EKVX	0.385
LC-2-ad	0.272
NCI-H1975	0.318
RERF-LC-KJ	0.446
NCI-H1944	0.752
PC-3 [JPC-3]	1.02

Same assay, conditions: first compound 8 µM

Cell Line	relative viability
HCC-15	0.211
PC-14	0.108
EKVX	0.325
LC-2-ad	0.264
NCI-H1975	0.28
RERF-LC-KJ	0.415
NCI-H1944	0.789
PC-3 [JPC-3]	1.04
